From US7235584B2, “Non-psychotropic cannabinoids” (Pharmos Corporation, priority 2000, dated 2007)

Legend:
kainic acid binding = experiment: Kainic acid binding to rat forebrain membranes
[1] = test system: T1, nitric oxide synthase (NOS); experiment: Inhibition of nitric oxide synthase, fluorimetric nitrite assay in LPS-stimulated macrophage supernatants; format: cell-based; details: macrophage cell cultures
T1 construct: endogenous in cells
Protocol: As one aspect of the anti-oxidative potential of the novel analogs they were tested for their ability to inhibit the enzyme nitric oxide synthase (NOS). This assay can also serve as another indication of the anti-inflammatory cascade, as well as the anti-oxidative mechanisms.
The final products of NOS are Nitrite (NO2) and Nitrate (NO3). The in vitro fluorimetric assay provides an accurate method for the measurement of the Nitrite, which is the majority of NO products. The principle of the fluorimetric assay is based on the addition of DAN (2,3-diaminonaphthalene) to the aliquots of the supernatants collected from macrophage cell cultures incubated with the new analogs and stimulated with LPS. Following, NaOH was added to convert Nitrite to a fluorescent compound 1(H)-naphthtriazole. The fluorescence was measured immediately in a fluorimeter using excitation wavelength of 365 nm and an emission wavelength of 450 nm.

[2] = test system: rat model of closed head injury; experiment: Closed head injury (head trauma) in rats: cerebral edema and Neurological Severity Score; format: in vivo
From the text: Severe head injury is associated with high mortality and severe neurological impairment. Animals subjected to head trauma in a controlled fashion serve as models in which to test drugs of therapeutic potential. Test compounds can be evaluated both for improved clinical outcome and for reduction of edema induced by closed head injury. The ability of compounds to reduce the severity of neurological symptoms and to reduce brain edema is considered a measure of their potency in reducing brain damage.
The cerebroprotective effect of PRS-211 compounds was assessed in a model of head trauma (HT) in rats. […] The clinical status of the rats was evaluated 1, 24 and 48 hours after injury along with measuring the extent of cerebral edema. The neurological deficit, assessed by a set of criteria termed the Neurological Severity Score (NSS), is maximal at 1 hour after the initiation of head trauma. […]
The model was described in detail by Shapira et al., Crit. […] During the recovery period, the clinical status was evaluated by a set of criteria (NSS).
Trauma induced a significant decrease in specific gravity (SG) of brain tissue and increase in water content following head injury. […] Tissue pieces (20 mg each) were placed on top of the column and the SG calculated from the equilibrium position in the column, using a standard curve. […]

tail flick model in mice = experiment: Tail flick model: analgesic effect and tolerance to morphine; format: in vivo, ICR male mice; details: for analgesic activity administered separately: escalating doses of up to 10 mg/kg i.p.
From the text: A mice model of acute pain, the tail flick model, was used to test the ability of compounds to prolong the analgesic activity of opioids, by preventing the development of tolerance, and their ability to reverse established tolerance.
The following animal model of acute pain was used to assess the potential analgesic effects of test compounds either alone or in combination with morphine. […] In this model the nociceptive stimulus is thermal and the latency time till the animal flicks its tail is monitored (Le Bars D., Gozariu M. & Cadden S. W., Pharmacol. Rev. 53: 597–652, 2001).
Hyperalgesia to radiant heat was assessed as follows. ICR male mice (20–30 g average body weight, Harlan, Israel) were injected with test compounds i.p. at the volume dose of 5 ml/kg. Each treatment group contained at least 6 animals. The test compounds were dissolved in Cremophor®:ethanol (70:30 weight/weight) and diluted 1:20 in saline prior to injection. Morphine HCl was directly dissolved in saline. Its vehicle was also included as control. Pain threshold was determined 30 minutes post-administration by measuring the foot-withdrawal latency defined as the time from the onset of radiant heat to foot withdrawal. The cut-off time was preset to 10 seconds in order to prevent tissue damage. […] Test compounds (5 mg/kg) and vehicle (5 ml/kg) were administered 15 minutes before morphine and pain threshold was determined 30 minutes after the first injection of morphine on day 1, 5, 8 and 10. […] Pain threshold was determined on day 1 and 10.
In each type of study, the animals were tested on given days 30 minutes after morphine injection in the tail flick apparatus (Socrel, model DS 20). Animals were gently held while their tails were located above the photoelectric cell. The tails were then illuminated (21V) at 2 cm from the distal tip and the latency time, measured in seconds, was recorded in duplicates. The results are expressed either as absolute latency time or as percent of animals that enjoyed significant analgesia as measured by the fact that their latency time is at least twice the latency time for vehicle treated animals. At the end of the study, the animals were euthanized by i.p. injection of 100 mg/kg sodium pentobarbitone.
The differences between the latency times among various treatment groups was analyzed by analysis of variance (ANOVA) followed by post-hoc Duncan test. The differences between the % of animals showing analgesia among various treatment groups was analyzed by analysis of variance (ANOVA) followed by post-hoc Fisher exact test. A value of p<0.05 is considered to be statistically significant.

T1 sequence (P35228 whole entry): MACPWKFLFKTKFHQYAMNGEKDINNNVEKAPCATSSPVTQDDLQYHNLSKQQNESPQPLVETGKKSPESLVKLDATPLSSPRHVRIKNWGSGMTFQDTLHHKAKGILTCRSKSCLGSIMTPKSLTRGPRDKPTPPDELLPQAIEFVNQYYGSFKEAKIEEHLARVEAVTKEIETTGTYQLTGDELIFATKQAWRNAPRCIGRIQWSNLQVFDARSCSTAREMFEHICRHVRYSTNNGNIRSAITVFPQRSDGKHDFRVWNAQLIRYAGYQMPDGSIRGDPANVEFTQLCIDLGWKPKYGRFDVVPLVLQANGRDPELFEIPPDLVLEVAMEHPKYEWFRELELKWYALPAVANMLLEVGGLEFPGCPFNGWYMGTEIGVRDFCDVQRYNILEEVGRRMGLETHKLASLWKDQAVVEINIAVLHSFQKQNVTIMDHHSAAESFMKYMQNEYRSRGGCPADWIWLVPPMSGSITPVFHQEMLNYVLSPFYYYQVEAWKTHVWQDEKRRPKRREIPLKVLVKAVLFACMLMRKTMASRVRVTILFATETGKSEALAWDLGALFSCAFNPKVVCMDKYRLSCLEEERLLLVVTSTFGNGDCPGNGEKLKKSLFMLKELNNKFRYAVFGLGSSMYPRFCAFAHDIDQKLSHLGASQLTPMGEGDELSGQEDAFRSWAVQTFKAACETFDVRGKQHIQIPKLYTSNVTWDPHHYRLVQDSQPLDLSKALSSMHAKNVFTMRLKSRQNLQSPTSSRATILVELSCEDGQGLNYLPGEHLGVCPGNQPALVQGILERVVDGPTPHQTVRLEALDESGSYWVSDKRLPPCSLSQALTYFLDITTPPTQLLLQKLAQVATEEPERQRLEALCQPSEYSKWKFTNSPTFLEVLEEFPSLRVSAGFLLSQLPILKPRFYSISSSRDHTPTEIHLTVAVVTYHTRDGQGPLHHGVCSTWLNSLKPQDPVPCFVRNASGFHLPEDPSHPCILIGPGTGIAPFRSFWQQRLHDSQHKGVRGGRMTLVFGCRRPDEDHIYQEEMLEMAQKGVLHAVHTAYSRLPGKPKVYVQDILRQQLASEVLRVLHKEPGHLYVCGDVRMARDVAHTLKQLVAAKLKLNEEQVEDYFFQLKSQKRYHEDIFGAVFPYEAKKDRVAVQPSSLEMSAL

SMILES | inhibition of kainic acid binding (kainic acid binding) | inhibition at 10 µM [1] [%] | edema formation and BBB disruption ([2]; given 30 min before, immediately after, or 1 and 2 hours after HT) | edema and clinical outcome 24 hours after HT ([2]; one dose of 5 mg/kg given 1 hour after the impact) | analgesic activity administered separately (tail flick model in mice) | development of tolerance to morphine (tail flick model in mice; 5 mg/kg in combination with 10 mg/kg i.p. morphine over 10 days) | reversal of established tolerance to morphine (tail flick model in mice; in combination with morphine from day 11, tested day 12, 15, 17, PRS-211,220 5 mg/kg, dextromethorphan 20 mg/kg)
CCCCCCC(C)(C)c1cc(O)c2c(c1)OC(C)(C)[C@H]1CC=C(CO)CC21 (stereo partly drawn) [211,007-000, 1,1 dimethyl heptyl-(3S,4S)-7-hydroxy-Δ^6-tetrahydrocannabinol] | unable to inhibit | 20 | – | – | – | – | –
CCCCCCC(C)(C)c1cc(O)c2c(c1)OC(C)(C)C1CC=C(Cn3ccnc3)CC21.Cl (single isomer, unassigned; (+)) [211,095-000, (+)-(3S ,4S )-6,6-Dimethyl-(1,1-dimethylheptyl)-1-hydroxy-9-(imidazolomethyl)-6a,7,10,10a-tetrahydro-6H-dibenzo[b,d]pyran] | – | 34 | significantly reduces edema formation and BBB disruption | effectively reduced edema and improved the clinical outcome | no significant analgesic activity | – | –
CCCCCCC(C)(C)c1cc(O)c2c(c1)OC(C)(C)C1CC=C(CSc3ncc[nH]3)CC21 (single isomer, unassigned; (+)) [211,092-000] | – | 86 | – | – | no significant analgesic activity | – | –
CCCCCCC(C)(C)c1cc(O)c2c(c1)OC(C)(C)[C@H]1CC=C(Cn3cccn3)C[C@H]21 [211,220-000, (+)-(3S,4S)-6,6-Dimethyl-(1,1-dimethylheptyl)-1-hydroxy-9-(pyrazolomethyl)-6a,7,10,10a-tetrahydro-6H-dibenzo[b,d]pyran] | – | 24 | – | – | no significant analgesic activity | effective in reducing the development of tolerance toward opioid | trend of reversal at all time points tested which became statistically significant on day 17
